Columns and labels:
Assay in all cases: Antibiotic susceptibility profile
Type in all cases: cell-based, Acinetobacter baumannii
Parameters in all cases: key: Resistance; Intermediate; Susceptible
[1] = tested on: A. baumannii clinical isolate LAC 12
How it was run: (§1)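 R/I/S calls per drug; panel limited to agents having A. baumannii breakpoints; isolates from hospital-acquired infections, LA County and NYC.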

[2] = tested on: A. baumannii clinical isolate NY H
How it was run: as §1

[3] = tested on: A. baumannii reference strain 15839; settings: strain 15839 (ATCC)
How it was run: (§2)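 Isolates were collected from nosocomial infections in two US cities (Los Angeles County, New York City). Antibiotics lacking A. baumannii-specific breakpoints were excluded from testing. Susceptibility was then scored as R, I or S.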

[4] = tested on: A. baumannii clinical isolate LAC 10
How it was run: as §1

[5] = tested on: A. baumannii clinical isolate LAC 11
How it was run: as §1

[6] = tested on: A. baumannii reference strain 17978; settings: strain 17978 (ATCC)
How it was run: as §2

[7] = tested on: A. baumannii reference strain 19606; settings: strain 19606 (ATCC)
How it was run: as §2

[8] = tested on: A. baumannii clinical isolate LAC 09
How it was run: as §1

[9] = tested on: A. baumannii clinical isolate LAC 19
How it was run: as §1

[10] = tested on: A. baumannii clinical isolate LAC 07
How it was run: as §1

[11] = tested on: A. baumannii clinical isolate NY F
How it was run: as §1

[12] = tested on: A. baumannii clinical isolate LAC 04
How it was run: as §1

[13] = tested on: A. baumannii clinical isolate LAC 05
How it was run: as §1

[14] = tested on: A. baumannii clinical isolate NY E
How it was run: as §1

[15] = tested on: A. baumannii clinical isolate LAC 17
How it was run: as §1

[16] = tested on: A. baumannii clinical isolate LAC 20
How it was run: as §1

[17] = tested on: A. baumannii clinical isolate LAC 16
How it was run: as §1

[18] = tested on: A. baumannii clinical isolate NY D
How it was run: as §1

[19] = tested on: A. baumannii clinical isolate LAC 06
How it was run: as §1

[20] = tested on: A. baumannii clinical isolate NY G
How it was run: as §1

[21] = tested on: A. baumannii clinical isolate NY B
How it was run: as §1

[22] = tested on: A. baumannii reference strain AYE
How it was run: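 Clinical isolates from nosocomial infections in New York City and Los Angeles, tested alongside reference strains against only antibiotics having A. baumannii breakpoints; each scored R (resistant), I (intermediate) or S (susceptible).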

[23] = tested on: A. baumannii clinical isolate NY A
How it was run: as §1

[24] = tested on: A. baumannii clinical isolate LAC 13
How it was run: as §1

[25] = tested on: A. baumannii clinical isolate LAC 08
How it was run: as §1

[26] = tested on: A. baumannii clinical isolate LAC 02
How it was run: as §1

[27] = tested on: A. baumannii clinical isolate NY C
How it was run: as §1

[28] = tested on: A. baumannii clinical isolate LAC 03
How it was run: as §1

[29] = tested on: A. baumannii clinical isolate LAC 15
How it was run: as §1

[30] = tested on: A. baumannii clinical isolate LAC 18
How it was run: as §1

[31] = tested on: A. baumannii clinical isolate LAC 01
How it was run: as §1

[32] = tested on: A. baumannii reference strain SDF
How it was run: as §2

[33] = tested on: A. baumannii clinical isolate LAC 14
How it was run: as §1

SMILES | Antibiotic susceptibility [1] | Antibiotic susceptibility [2] | Antibiotic susceptibility [3] | Antibiotic susceptibility [4] | Antibiotic susceptibility [5] | Antibiotic susceptibility [6] | Antibiotic susceptibility [7] | Antibiotic susceptibility [8] | Antibiotic susceptibility [9] | Antibiotic susceptibility [10] | Antibiotic susceptibility [11] | Antibiotic susceptibility [12] | Antibiotic susceptibility [13] | Antibiotic susceptibility [14] | Antibiotic susceptibility [15] | Antibiotic susceptibility [16] | Antibiotic susceptibility [17] | Antibiotic susceptibility [18] | Antibiotic susceptibility [19] | Antibiotic susceptibility [20] | also measured
COc1c(N2CCNC(C)C2)c(F)cc2c(=O)c(C(=O)O)cn(C3CC3)c12 (stereo not drawn) [GAT, Gatifloxacin] | R | R | R | R | R | S | S | R | I | R | R | S | R | R | R | R | R | R | S | R | Antibiotic susceptibility [21]: R; Antibiotic susceptibility [22]: I; Antibiotic susceptibility [23]: R; Antibiotic susceptibility [24]: R; Antibiotic susceptibility [25]: R; Antibiotic susceptibility [26]: R; Antibiotic susceptibility [27]: R; Antibiotic susceptibility [28]: R; Antibiotic susceptibility [29]: R; Antibiotic susceptibility [30]: R; Antibiotic susceptibility [31]: R; Antibiotic susceptibility [32]: S; Antibiotic susceptibility [33]: R
C[C@@H](O)[C@H]1C(=O)N2C(C(=O)O)=C(SCCN=CN)C[C@H]12 [IPM, Imipenem] | S | R | S | R | S | S | S | R | I | I | R | S | S | R | I | I | I | R | S | R | Antibiotic susceptibility [21]: R; Antibiotic susceptibility [22]: R; Antibiotic susceptibility [23]: R; Antibiotic susceptibility [24]: S; Antibiotic susceptibility [25]: S; Antibiotic susceptibility [26]: I; Antibiotic susceptibility [27]: R; Antibiotic susceptibility [28]: S; Antibiotic susceptibility [29]: I; Antibiotic susceptibility [30]: I; Antibiotic susceptibility [31]: S; Antibiotic susceptibility [32]: S; Antibiotic susceptibility [33]: S
C[C@@H](O)[C@H]1C(=O)N2C(C(=O)O)=C(S[C@@H]3CN[C@H](C(=O)N(C)C)C3)[C@H](C)[C@H]12 [MEM, Meropenem] | S | R | S | R | R | S | S | R | R | R | R | S | S | R | S | I | S | R | S | R | Antibiotic susceptibility [21]: R; Antibiotic susceptibility [22]: S; Antibiotic susceptibility [23]: R; Antibiotic susceptibility [24]: S; Antibiotic susceptibility [25]: S; Antibiotic susceptibility [26]: R; Antibiotic susceptibility [27]: R; Antibiotic susceptibility [28]: I; Antibiotic susceptibility [29]: R; Antibiotic susceptibility [30]: S; Antibiotic susceptibility [31]: R; Antibiotic susceptibility [32]: S; Antibiotic susceptibility [33]: S

From patent publication US20080090734A1, “DRUG SCREENING AND TARGET IDENTIFICATION USING SPR IMAGING OF TARGET PROTEIN ARRAYS” (The Trustees of California State University, priority 2006, published 2008)
